Reference: patent publication US5464820A, “Specific inhibitors of tissue kallikrein” (priority 1993, dated 1995)
Several values for one entry are separate records, joined by “and”; a condition that tells them apart may be missing. Equal values may be shown once. Read-outs that look alike come from different tables or passages of the source. Non-standard residues stand in square brackets, D forms with d. Residues, ends and D or L forms follow the SMILES beside them. No end group written: not given here. Phe(4-NH2) = Nc1ccc(C[C@H](N)C(=O)O)cc1; d(aIle) = CC[C@H](C)[C@@H](N)C(=O)O; hArg = N=C(N)NCCCC[C@H](N)C(=O)O; hPhe = N[C@@H](CCc1ccccc1)C(=O)O; Cit = NC(=O)NCCC[C@H](N)C(=O)O; dTle = CC(C)(C)[C@@H](N)C(=O)O; Phg = N[C@H](C(=O)O)c1ccccc1; hLys = NCCCCC[C@H](N)C(=O)O; hSer = N[C@@H](CCO)C(=O)O; ChCar = not defined here; dAbu = CC[C@@H](N)C(=O)O; dia = not defined here

Assays:
[1] = target: porcine pancreatic kallikrein (PPK) (Sus scrofa, UniProt P00752); experiment: Inhibition of porcine pancreatic kallikrein, cleavage of chromogenic substrate S-2266 (KI); format: biochemical
porcine pancreatic kallikrein (PPK), sequence (P00752 8-87 limits assumed): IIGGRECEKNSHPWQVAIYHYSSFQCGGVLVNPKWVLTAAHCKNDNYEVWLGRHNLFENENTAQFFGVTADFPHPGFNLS
porcine pancreatic kallikrein (PPK), sequence (P00752 95-246 limits assumed): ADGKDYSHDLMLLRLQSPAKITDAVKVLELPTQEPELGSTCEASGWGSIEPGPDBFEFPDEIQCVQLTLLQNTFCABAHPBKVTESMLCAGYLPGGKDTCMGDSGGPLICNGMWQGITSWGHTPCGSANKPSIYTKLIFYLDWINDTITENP

[2] = target: human plasma kallikrein (HPK) (Homo sapiens, UniProt P03952); experiment: Inhibition of human plasma kallikrein (KI); format: biochemical
human plasma kallikrein (HPK), sequence (P03952 20-638): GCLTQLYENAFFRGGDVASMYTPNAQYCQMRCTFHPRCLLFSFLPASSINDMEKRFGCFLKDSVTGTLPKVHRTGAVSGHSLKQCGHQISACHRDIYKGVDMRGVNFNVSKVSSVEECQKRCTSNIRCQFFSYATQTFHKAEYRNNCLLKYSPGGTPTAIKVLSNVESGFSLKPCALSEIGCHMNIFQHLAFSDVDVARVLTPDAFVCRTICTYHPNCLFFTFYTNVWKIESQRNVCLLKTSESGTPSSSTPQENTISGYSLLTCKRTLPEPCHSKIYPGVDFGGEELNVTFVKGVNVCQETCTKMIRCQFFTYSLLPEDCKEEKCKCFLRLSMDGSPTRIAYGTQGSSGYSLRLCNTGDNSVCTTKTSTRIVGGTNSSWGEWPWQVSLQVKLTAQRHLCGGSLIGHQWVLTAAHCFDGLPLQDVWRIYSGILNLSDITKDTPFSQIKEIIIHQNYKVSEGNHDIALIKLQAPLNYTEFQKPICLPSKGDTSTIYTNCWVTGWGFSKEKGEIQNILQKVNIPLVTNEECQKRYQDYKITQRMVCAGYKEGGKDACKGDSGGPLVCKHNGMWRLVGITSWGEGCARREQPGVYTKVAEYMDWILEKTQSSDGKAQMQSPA
Description: Assay methods were based on the cleavage of chromogenic substrate S-2266 (D-Val-Leu-Arg-pNA) (Kabi; Charlotte, N.C.) by porcine pancreatic kallikrein (Sigma Chemical Company; St. Louis, Mo.) to yield an increase in absorbance at 405 nm. By changing the substrate and enzyme, the general method has been extended to measure the inhibition of human tissue kallikrein (HTK or human urinary kallikrein HUK), human plasma kallikrein (HPK), plasmin, and urokinase (UK). In all assays, the robot dilutes the inhibitor into a series of wells and adds substrate and buffer. Chromogenic reactions are started by the addition of enzyme. Changes in the absorbance at 405 nm in an array of wells were recorded. All manipulations were performed by the instrument from reservoirs containing substrate, inhibitor, diluent (water), buffer, or enzyme.

[3] = Table 5, Pro-Phe-Arg-X-Val-Gln, read-out: KI PPK
[4] = Table 5, Pro-Phe-Arg-X-Val-Gln, read-out: KI HPK
[5] = Table 4, Pro-X-Arg-Ser-Val-Gln, read-out: KI PPK
[6] = Table 4, Pro-X-Arg-Ser-Val-Gln, read-out: KI HPK
[7] = Table 2, P3 substitutions, read-out: log KI (converted)

With CC(C)[C@H](NC(=O)[C@H](C)NC(=O)[C@H](CCCNC(=N)N)NC(=O)[C@H](Cc1ccccc1)NC(=O)[C@@H]1CCCN1)C(=O)N[C@@H](CCC(N)=O)C(N)=O [Ala] (H-PFRAVQ-NH2) the Ki [1, 3] was 131 µM and 161 µM and the Ki [2, 4] was 0.536 mM.

N=C(N)NCCC[C@H](NC(=O)[C@H](CC(N)=O)NC(=O)[C@H](CCCNC(=N)N)NC(=O)[C@H](Cc1ccccc1)NC(=O)[C@@H](N)CCCNC(=N)N)C(=O)N[C@@H](CCC(N)=O)C(N)=O [Arg-Phe-Arg-Asn-Arg-Gln] (H-RFRNRQ-NH2) showed a Ki ([2]; Table 6, HUK, read-out: KI HUK) of 0.052 mM.

CC(C)[C@H](NC(=O)[C@@H](CO)NC(=O)[C@H](CCCNC(=N)N)NC(=O)[C@H](Cc1ccccc1)NC(=O)[C@@H]1CCCN1)C(=O)N[C@@H](CCC(N)=O)C(N)=O [D-Ser] (H-PFR[dS]VQ-NH2) gave a Ki [1, 3] of 1120 µM.

For CC(C)[C@H](NC(=O)[C@H](CCO)NC(=O)[C@H](CCCNC(=N)N)NC(=O)[C@H](Cc1ccccc1)NC(=O)[C@@H]1CCCN1)C(=O)N[C@@H](CCC(N)=O)C(N)=O [Hse] (H-PFR[hSer]VQ-NH2), the Ki [1, 3] was 163 µM and the Ki [2, 4] was 0.359 mM.

With CC(C)[C@H](NC(=O)[C@H](CO)NC(=O)[C@H](CCCNC(=N)N)NC(=O)[C@H](CCc1ccccc1)NC(=O)[C@@H]1CCCN1)C(=O)N[C@@H](CCC(N)=O)C(N)=O [KCH-2] (H-P[hPhe]RSVQ-NH2) the Ki [1, 5] was 402 µM and the Ki [2, 6] was 0.545 mM.

CC(C)[C@H](NC(=O)[C@H](CO)NC(=O)[C@H](CCCNC(=N)N)NC(=O)[C@@H](NC(=O)[C@@H]1CCCN1)c1ccccc1)C(=O)N[C@@H](CCC(N)=O)C(N)=O [KCH-5] (H-P[Phg]RSVQ-NH2) was tested, and the Ki [1, 5] was 1320 µM and the “KI HPK” value ([2]; Table 4, Pro-X-Arg-Ser-Val-Gln) was “ni”.

In the case of CC(C)[C@H](NC(=O)[C@H](CO)NC(=O)[C@H](CCCNC(=N)N)NC(=O)[C@H](Cc1c[nH]c2ccccc12)NC(=O)[C@@H]1CCCN1)C(=O)N[C@@H](CCC(N)=O)C(N)=O [KCH-11] (H-PWRSVQ-NH2), the Ki [1, 5] is reported as 230 µM and the Ki [2, 6] is reported as 0.449 mM.

Work on CC(C)[C@H](NC(=O)[C@H](CO)NC(=O)[C@H](CCCNC(N)=O)NC(=O)[C@H](Cc1ccccc1)NC(=O)[C@@H]1CCCN1)C(=O)N[C@@H](CCC(N)=O)C(N)=O [KIDZ-7, Pro-Phe-Cit-Ser-Val-Gln] (H-PF[Cit]SVQ-NH2) yielded a Ki ([1]; Table 7, in mM, read-out: K1 PPK) of over 3000 µM and a Ki ([2]; Table 7, in mM, read-out: K1 HPK) of over 5 mM.

With CC(C)[C@H](NC(=O)[C@H](CO)NC(=O)[C@H](CCCCCN)NC(=O)[C@H](Cc1ccccc1)NC(=O)[C@@H]1CCCN1)C(=O)N[C@@H](CCC(N)=O)C(N)=O [KIDZ-8, Pro-Phe-hLys-Ser-Val-Gln] (H-PF[hLys]SVQ-NH2) the Ki ([1]; Table 7, read-out: K1 PPK) was 203 µM.

Compound CC(C)[C@H](N)C(=O)N[C@@H](Cc1ccccc1)C(=O)N[C@H](C=O)Cc1ccc(N)cc1 [KITDS-2, Val-Phe-Phe(4NH2)-aldehyde] (H-Val-Phe-[Phe(4-NH2)]-aldehyde) has a Ki ([1]; Table 7, read-out: K1 PPK) of 160 µM.

Nc1ccc(C[C@@H](C=O)NC(=O)[C@H](Cc2ccccc2)NC(=O)[C@@H]2CCCN2C(=O)[C@@H](N)Cc2ccccc2)cc1 [KITSD-1, Phe-Pro-Phe-Phe(4NH2)-aldehyde] (H-FPF[Phe(4-NH2)]-aldehyde) showed a Ki ([1]; Table 7, read-out: K1 PPK) of 27 µM.

Compound CC(C)[C@H](NC(=O)[C@H](CO)NC(=O)[C@H](CCCNC(=N)N)NC(=O)[C@H](Cc1ccccc1)NC(=O)CN)C(=O)N[C@@H](CCC(N)=O)C(N)=O [KKI-80, Gly-Phe-Arg-Ser-Val-Gln] (H-GFRSVQ-NH2) has a Ki [1, 7] of 79.4 µM.

With CC(C)[C@H](NC(=O)[C@H](CO)NC(=O)[C@H](CCCNC(=N)N)NC(=O)[C@H](Cc1ccccc1)NC(=O)[C@@H](C)N)C(=O)N[C@@H](CCC(N)=O)C(N)=O [KKI-81, [D-Ala]-Phe-Arg-Ser-Val-Gln] (H-[dA]FRSVQ-NH2) the Ki [1, 7] was 50.1 µM.

CC[C@@H](N)C(=O)N[C@@H](Cc1ccccc1)C(=O)N[C@@H](CCCNC(=N)N)C(=O)N[C@@H](CO)C(=O)N[C@H](C(=O)N[C@@H](CCC(N)=O)C(N)=O)C(C)C [KKI-82, [D-Aab]-Phe-Arg-Ser-Val-Gln] (H-[dAbu]FRSVQ-NH2) was tested, and the Ki [1, 7] was 43.7 µM.

Work on CC(C)[C@H](NC(=O)[C@H](CO)NC(=O)[C@H](CCCNC(=N)N)NC(=O)[C@H](Cc1ccccc1)NC(=O)[C@H](N)C(C)C)C(=O)N[C@@H](CCC(N)=O)C(N)=O [KKI-83, [D-Val]-Phe-Arg-Ser-Val-Gln] (H-[dV]FRSVQ-NH2) yielded a Ki [1, 7] of 100 µM.

Work on CC(C)[C@H](NC(=O)[C@H](CO)NC(=O)[C@H](CCCNC(=N)N)NC(=O)[C@H](Cc1ccccc1)NC(=O)[C@H](N)C(C)(C)C)C(=O)N[C@@H](CCC(N)=O)C(N)=O [KKI-84, [D-t-BuGly]-Phe-Arg-Ser-Val-Gln] (H-[dTle]FRSVQ-NH2) yielded a Ki [1, 7] of 75.9 µM.

With CC[C@@H](C)[C@@H](N)C(=O)N[C@@H](Cc1ccccc1)C(=O)N[C@@H](CCCNC(=N)N)C(=O)N[C@@H](CO)C(=O)N[C@H](C(=O)N[C@@H](CCC(N)=O)C(N)=O)C(C)C [KKI-85, [D-Ile]-Phe-Arg-Ser-Val-Gln] (H-[dI]FRSVQ-NH2) the Ki ([1]; text b291, β-PPK, read-out: KI) was 34 µM.

With CC[C@H](C)[C@@H](N)C(=O)N[C@@H](Cc1ccccc1)C(=O)N[C@@H](CCCNC(=N)N)C(=O)N[C@@H](CO)C(=O)N[C@H](C(=O)N[C@@H](CCC(N)=O)C(N)=O)C(C)C [KKI-105] (H-[d(aIle)]FRSVQ-NH2) the Ki [1, 7] was 57.5 µM.

Work on CC[C@H](C)[C@H](NC(=O)[C@H](CCCNC(=N)N)NC(=O)[C@H](C)NC(=O)[C@H](CCCCN)NC(=O)[C@H](CS)NC(=O)[C@@H]1CCCN1)C(N)=O [Pro-Cys-Lys-Ala-Arg-Ile] (H-PCKARI-NH2) yielded a Ki ([1]; Table 6, read-out: KI PPK) of 0.003 µM and a Ki ([2]; Table 6, HUK, read-out: KI HUK) of 0.00018 mM.

For CC(C)[C@H](N)C(=O)N[C@@H](Cc1ccccc1)C(=O)N[C@@H](CCCNC(=N)N)C(=O)N[C@@H](CC(N)=O)C(=O)N[C@@H](CCCNC(=N)N)C(=O)N[C@@H](CCC(N)=O)C(N)=O [Val-Phe-Arg-Asn-Arg-Gln] (H-VFRNRQ-NH2), the Ki ([2]; Table 6, HUK, read-out: KI HUK) was 0.532 mM.

With CC(C)[C@H](N)C(=O)N[C@@H](Cc1ccccc1)C(=O)N[C@@H](CCCNC(=N)N)C(=O)N[C@@H](CC(N)=O)C(=O)N[C@@H](CC(N)=O)C(=O)N[C@@H](CCCNC(=N)N)C(N)=O [Val-Phe-Arg-Asn-Asn-Arg] (H-VFRNNR-NH2) the Ki ([2]; Table 6, HUK, read-out: KI HUK) was 0.124 mM.

CC(C)[C@H](N)C(=O)N[C@@H](Cc1ccccc1)C(=O)N[C@@H](CCCNC(=N)N)C(=O)N[C@@H](CC(N)=O)C(=O)N[C@@H](CO)C(=O)N[C@@H](CCCNC(=N)N)C(N)=O [Val-Phe-Arg-Asn-Ser-Arg] (H-VFRNSR-NH2) was tested, and the Ki ([2]; Table 6, HUK, read-out: KI HUK) was 0.194 mM.

In the case of CC(C)[C@H](N)C(=O)N[C@@H](Cc1ccccc1)C(=O)N[C@@H](CCCNC(=N)N)C(=O)N[C@@H](CC(N)=O)C(=O)N[C@H](CCCNC(=N)N)C(=O)N[C@@H](CCC(N)=O)C(N)=O [Val-Phe-Arg-Asn-dArg-Gln] (H-VFRN[dR]Q-NH2), the Ki ([2]; Table 6, HUK, read-out: KI HUK) is reported as 1.57 mM.

CC(C)[C@H](N)C(=O)N[C@@H](Cc1ccccc1)C(=O)N[C@@H](CCCCNC(=N)N)C(=O)N[C@@H](CC(N)=O)C(=O)N[C@@H](CCCCNC(=N)N)C(=O)N[C@@H](CCC(N)=O)C(N)=O [Val-Phe-hArg-Asn-hArg-Gln] (H-VF[hArg]N[hArg]Q-NH2) was tested, and the Ki ([1]; Table 6, read-out: KI PPK) was 2.9 µM and 10 µM and the Ki ([2]; Table 6, HUK, read-out: KI HUK) was 0.298 mM.

With “ChCar-Phe-Arg-dia-Val-Gln (ChCar-FR[dia]VQ; reading uncertain; also: printed as ChCar-Phe-Arg-dia-Val-Gln)” the Ki ([1]; Table 6, read-out: KI PPK) was 114 µM and the Ki ([2]; Table 6, HUK, read-out: KI HUK) was 0.985 mM.
